Patent US5223526A, “Pyrazole carboxanilide fungicides and use” (Monsanto Company, priority 1992, dated 1993)

Columns and labels:
Botrytis cinerea [1] = assay: Eggplant grey mold; format: in vivo; design: scale not given here; details: inoculated 24 h later, rated after 3-4 days; for Disease Control Rating at 20 ppm: eggplant sprayed with 20 ppm; for Disease Control Rating at 100 ppm: eggplant sprayed with 100 ppm; for Disease Control Rating at 500 ppm: eggplant sprayed with 500 ppm
In short: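 Protective test: compound formulations (2:3 acetone:water, 0.5% Tween 20; 500, 100 or 20 ppm) sprayed on 14-18-day-old plants, with spore inoculum (4×10^6 spore/mL) applied a day later. Disease control rated on Botrytis lesions after 3-4 days at 23 °C and 100% humidity.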

succinate dehydrogenase = target: T1, succinate dehydrogenase (Botrytis cinerea, UniProt A0A384J5E4+A0A384J8V8+A0A384JHJ5); assay: Enzyme inhibition: succinate dehydrogenase activity in Botrytis cinerea mitochondria (DCPIP reduction); format: biochemical; details: concentration required to inhibit the rate of DCPIP reduction by 50%; Botrytis cinerea isolate Nick mitochondria; read-out: I50 (μM conc.)
T1 construct: succinate-DCPIP reductase assay with KCN
In short: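 DCPIP (45 μM) reduction at 600 nm tracked with 17 mM succinate, 1 mM KCN and 50 mM potassium phosphate, pH 7.2. Compounds were added in acetone (final 1% v/v), and Botrytis cinerea isolate Nick mitochondrial fraction initiated the reaction. Rates minus endogenous activity gave percentage inhibition, plotted semilog against concentration to derive I50 (μM).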

Botrytis cinerea [2] = assay: Vine grey mold (grape berries); format: in vivo; details: average of six berries, 7-10 days; for pest or weed control at 50 ppm: grape berries treated with 50 ppm, read-out: % DISEASE CONTROL 50 ppm; for pest or weed control at 200 ppm: grape berries treated with 200 ppm, read-out: % DISEASE CONTROL 200 ppm
In short: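 Preventive berry test: compound at 50 or 200 ppm (acetone/water, 0.05% Tween 20) applied one day before inoculation with 10^6 spores/mL Botrytis conidia. After 7-10 days at 20 °C under 12 h light, infected surface area rated; disease control expressed as percent reduction from control mean; repeated-test values averaged.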

Rhizoctonia solani = assay: Rice sheath blight; format: in vivo; design: scale not given here; details: inoculated two days later, rated after 7 days, average of five plants; for Disease Control Rating at 0.5 mg/mL: foliage and soil sprayed with 0.5 mg/mL; for Disease Control Rating at 0.02 mg/mL: foliage and soil sprayed with 0.02 mg/mL; for Disease Control Rating at 0.1 mg/mL: foliage and soil sprayed with 0.1 mg/mL
In short: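 Preventive test: R. solani inoculum on rice grain was applied at the plant base two days after spraying foliage and soil with Compound A (0.5, 0.1 or 0.02 mg/mL, water/acetone/Tween 20). Plants aged 11–15 days stood in flood trays; after 7 days at 25 °C and high humidity, disease control was rated against untreated plants, five plants averaged.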

T1 sequence (A0A384J5E4 1-300): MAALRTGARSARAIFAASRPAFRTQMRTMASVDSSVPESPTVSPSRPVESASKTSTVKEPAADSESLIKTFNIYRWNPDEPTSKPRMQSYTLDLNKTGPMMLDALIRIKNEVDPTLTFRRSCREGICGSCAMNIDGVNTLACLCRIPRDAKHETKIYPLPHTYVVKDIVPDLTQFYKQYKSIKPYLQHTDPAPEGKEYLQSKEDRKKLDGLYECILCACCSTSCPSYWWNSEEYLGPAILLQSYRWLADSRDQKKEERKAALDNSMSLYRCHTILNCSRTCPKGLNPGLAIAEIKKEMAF
T1 sequence (A0A384J8V8 1-189): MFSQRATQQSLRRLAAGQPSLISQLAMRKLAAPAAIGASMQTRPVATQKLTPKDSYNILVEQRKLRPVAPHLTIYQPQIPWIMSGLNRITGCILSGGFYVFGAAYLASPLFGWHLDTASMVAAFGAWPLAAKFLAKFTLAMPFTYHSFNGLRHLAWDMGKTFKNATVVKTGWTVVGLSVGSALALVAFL
T1 sequence (A0A384JHJ5 1-192): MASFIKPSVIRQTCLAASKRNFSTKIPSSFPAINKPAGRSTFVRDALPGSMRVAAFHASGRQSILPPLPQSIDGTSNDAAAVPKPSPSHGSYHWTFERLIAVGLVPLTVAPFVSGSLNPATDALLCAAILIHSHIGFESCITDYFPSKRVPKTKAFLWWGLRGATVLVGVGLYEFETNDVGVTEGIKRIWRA
T1 sequence (A0A384K456 1-647 partner): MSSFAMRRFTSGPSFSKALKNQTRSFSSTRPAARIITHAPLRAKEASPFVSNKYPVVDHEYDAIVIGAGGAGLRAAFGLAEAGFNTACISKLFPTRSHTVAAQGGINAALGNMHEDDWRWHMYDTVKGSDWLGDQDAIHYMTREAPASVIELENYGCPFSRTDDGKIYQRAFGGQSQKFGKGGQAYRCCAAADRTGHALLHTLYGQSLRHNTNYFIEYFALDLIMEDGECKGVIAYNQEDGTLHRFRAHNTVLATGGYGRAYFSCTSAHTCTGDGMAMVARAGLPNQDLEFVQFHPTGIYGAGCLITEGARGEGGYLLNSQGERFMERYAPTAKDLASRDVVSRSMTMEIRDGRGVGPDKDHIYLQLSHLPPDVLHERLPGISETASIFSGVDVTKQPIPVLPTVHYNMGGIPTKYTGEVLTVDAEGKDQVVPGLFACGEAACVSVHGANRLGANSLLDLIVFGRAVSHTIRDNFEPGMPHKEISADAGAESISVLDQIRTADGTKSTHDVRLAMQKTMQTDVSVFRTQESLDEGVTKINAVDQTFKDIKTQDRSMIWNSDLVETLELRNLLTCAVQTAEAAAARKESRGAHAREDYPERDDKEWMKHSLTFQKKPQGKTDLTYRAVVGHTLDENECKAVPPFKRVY

CC(C)C1CCCC=C1c1ccccc1NC(=O)c1cn(C)nc1C(F)(F)F (stereo not drawn) [Example 131, 1H-pyrazole-4-carboxamide, 1-methyl-N-[2-[6-(1-methylethyl)-1-cyclohexen-1-yl]phenyl]-3-(trifluoromethyl)-]
Disease Control Rating at 20 ppm (Botrytis cinerea [1]): 0 | Disease Control Rating at 100 ppm (Botrytis cinerea [1]): 0 | Disease Control Rating at 500 ppm (Botrytis cinerea [1]): 0 | IC50 (succinate dehydrogenase): 0.19 µM | pest or weed control at 50 ppm (Botrytis cinerea [2]): 7% | pest or weed control at 200 ppm (Botrytis cinerea [2]): 0% | Disease Control Rating at 0.5 mg/mL (Rhizoctonia solani): 2

Cn1cc(C(=O)Nc2ccccc2C2=CCC(C(C)(C)C)CC2)c(C(F)F)n1 (stereo not drawn) [Example 132, 1H-pyrazole-4-carboxamide, 3-(difluoromethyl)-N-[2-[4-(1,1-dimethylethyl)-1-cyclohexen-1-yl]phenyl]-1-methyl-]
Disease Control Rating at 500 ppm (Botrytis cinerea [1]): 0 | IC50 (succinate dehydrogenase): 0.0035 µM | pest or weed control at 50 ppm (Botrytis cinerea [2]): 50% | pest or weed control at 200 ppm (Botrytis cinerea [2]): 51% | Disease Control Rating at 0.02 mg/mL (Rhizoctonia solani): 1 | Disease Control Rating at 0.1 mg/mL (Rhizoctonia solani): 2 | Disease Control Rating at 0.5 mg/mL (Rhizoctonia solani): 3

Cn1cc(C(=O)Nc2ccccc2C2=CCC(C(C)(C)C)CC2)c(C(F)(F)F)n1 (stereo not drawn) [Example 133, 1H-pyrazole-4-carboxamide, N-[2-[4-(1, -dimethylethyl)-1-cyclohexen-1-yl]phenyl]-1-methyl-3-(trifluoromethyl)-]
Disease Control Rating at 20 ppm (Botrytis cinerea [1]): 0 | Disease Control Rating at 100 ppm (Botrytis cinerea [1]): 0 | Disease Control Rating at 500 ppm (Botrytis cinerea [1]): 1 | IC50 (succinate dehydrogenase): 0.0046 µM | pest or weed control at 50 ppm (Botrytis cinerea [2]): 39% | pest or weed control at 200 ppm (Botrytis cinerea [2]): 36% | Disease Control Rating at 0.02 mg/mL (Rhizoctonia solani): 1 | Disease Control Rating at 0.1 mg/mL (Rhizoctonia solani): 2 | Disease Control Rating at 0.5 mg/mL (Rhizoctonia solani): 3

Cn1cc(C(=O)Nc2ccccc2C2CCC(C(C)(C)C)CC2)c(C(F)F)n1 (stereo not drawn) [Example 134]
Disease Control Rating at 20 ppm (Botrytis cinerea [1]): 1 | Disease Control Rating at 100 ppm (Botrytis cinerea [1]): 1 | Disease Control Rating at 500 ppm (Botrytis cinerea [1]): 2 | IC50 (succinate dehydrogenase): 0.0047 µM | pest or weed control at 50 ppm (Botrytis cinerea [2]): 66% | pest or weed control at 200 ppm (Botrytis cinerea [2]): 61% | Disease Control Rating at 0.02 mg/mL (Rhizoctonia solani): 3 | Disease Control Rating at 0.1 mg/mL (Rhizoctonia solani): 3 | Disease Control Rating at 0.5 mg/mL (Rhizoctonia solani): 3

Cn1cc(C(=O)Nc2ccccc2C2CCC(C(C)(C)C)CC2)c(C(F)(F)F)n1 (stereo not drawn) [Example 135, 1H-pyrazole-4-carboxamide, N-[2-[4-(1,1-dimethylethyl)cyclohexyl]-phenyl]-1-methyl-3-(trifluoromethyl)-]
Disease Control Rating at 20 ppm (Botrytis cinerea [1]): 1 | Disease Control Rating at 100 ppm (Botrytis cinerea [1]): 1 | Disease Control Rating at 500 ppm (Botrytis cinerea [1]): 2 | IC50 (succinate dehydrogenase): 0.01 µM | pest or weed control at 50 ppm (Botrytis cinerea [2]): 52% | pest or weed control at 200 ppm (Botrytis cinerea [2]): 66% | Disease Control Rating at 0.5 mg/mL (Rhizoctonia solani): 3

CC1=C(c2ccccc2NC(=O)c2cn(C)nc2C(F)(F)F)CCC1 [Example 137, 1H-pyrazole-4-carboxamide, 1-methyl-N-[2-(2-methyl-1-cyclopenten-1-yl)phenyl]-3-(trifluoromethyl)-]
Disease Control Rating at 20 ppm (Botrytis cinerea [1]): 1 | Disease Control Rating at 100 ppm (Botrytis cinerea [1]): 3 | Disease Control Rating at 500 ppm (Botrytis cinerea [1]): 3 | IC50 (succinate dehydrogenase): 0.02 µM | pest or weed control at 50 ppm (Botrytis cinerea [2]): 83% | pest or weed control at 200 ppm (Botrytis cinerea [2]): 100% | Disease Control Rating at 0.02 mg/mL (Rhizoctonia solani): 1 | Disease Control Rating at 0.1 mg/mL (Rhizoctonia solani): 2 | Disease Control Rating at 0.5 mg/mL (Rhizoctonia solani): 3
